From patent publication US4820834A, “Benzodiazepine analogs” (priority 1987, dated 1989) come the findings set out here.

The IC50 is the concentration needed to halve the response being measured.

Where a name gives a salt, the structure may show the parent alone. Read-outs that look alike come from different tables or passages of the source.

Assay [1] deals with T1, Gastrin receptor (gastric glands) (Cavia porcellus, UniProt H0VZC5).
T1 construct: The washed guinea pig gastric glands prepared as above were resuspended; from tissue; host or cells: guinea pig gastric mucosal glands (male Hartley)
T1 sequence (H0VZC5 1-426): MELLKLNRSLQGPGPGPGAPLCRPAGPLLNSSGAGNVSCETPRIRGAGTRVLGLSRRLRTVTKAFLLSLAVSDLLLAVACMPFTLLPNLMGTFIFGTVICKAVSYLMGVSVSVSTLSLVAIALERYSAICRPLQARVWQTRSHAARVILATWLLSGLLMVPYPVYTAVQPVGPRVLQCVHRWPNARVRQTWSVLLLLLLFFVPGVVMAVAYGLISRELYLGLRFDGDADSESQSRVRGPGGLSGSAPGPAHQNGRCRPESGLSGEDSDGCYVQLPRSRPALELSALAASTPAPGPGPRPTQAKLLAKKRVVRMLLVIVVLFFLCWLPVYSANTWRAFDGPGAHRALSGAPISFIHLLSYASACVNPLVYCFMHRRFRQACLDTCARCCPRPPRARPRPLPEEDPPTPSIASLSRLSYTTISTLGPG
Nature of the assay: Gastrin Receptor Binding in Guinea Pig Gastric Glands. The settings on record: 25° C., 30 minutes. On the set-up: species or system guinea pig (male Hartley).

For assay [2], the target named is T2, CCK receptor (brain, cerebral cortex) (Cavia porcellus, UniProt H0VZC5).
T2 construct: Cerebral cortex was dissected and used as a receptor source; from tissue; host or cells: guinea pig cerebral cortex membranes (male Hartley)
T2 sequence (H0VZC5 1-426): T1 sequence (H0VZC5 1-426)
The assay can be described thus: biochemical. In kind it is binding, Male Hartley guinea pigs. To be noted: guinea pig cerebral cortex, ^125 I-CCK-33, 25° C., 2 hours. A digest of the protocol:
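Binding of [radiolabeled] CCK-33 measured by gamma counting of centrifuged pellets after 2 h at 25°C. Membranes came from guinea pig brain cortex, suspended in 10 mM HEPES, 5 mM MgCl2, 1 mM EGTA, 0.25 mg/ml bacitracin, 0.4% BSA.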

Assay [3] has as its target T3, CCK receptor (pancreas) (Rattus norvegicus, UniProt P30551).
T3 construct: The whole pancreas was dissected free of fat tissue and was homogenized; from tissue; host or cells: rat pancreas membranes (Sprague-Dawley)
T3 sequence (P30551 1-444): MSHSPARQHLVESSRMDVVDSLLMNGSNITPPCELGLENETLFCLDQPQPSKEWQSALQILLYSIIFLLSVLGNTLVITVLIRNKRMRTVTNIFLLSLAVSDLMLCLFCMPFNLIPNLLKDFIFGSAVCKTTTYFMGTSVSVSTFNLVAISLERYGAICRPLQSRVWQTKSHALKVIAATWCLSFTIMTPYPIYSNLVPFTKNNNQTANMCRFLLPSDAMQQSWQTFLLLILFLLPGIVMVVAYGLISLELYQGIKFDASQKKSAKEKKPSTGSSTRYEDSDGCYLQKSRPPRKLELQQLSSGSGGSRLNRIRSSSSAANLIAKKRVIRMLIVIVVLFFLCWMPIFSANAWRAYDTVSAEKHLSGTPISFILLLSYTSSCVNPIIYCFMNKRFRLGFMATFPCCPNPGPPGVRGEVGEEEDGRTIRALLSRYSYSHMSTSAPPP
Nature of the assay: CCK Receptor Binding (Pancreas): inhibition of ^125 I-CCK-33 binding. To be noted: rat pancreas membranes, ^125 I-CCK-33, 37° C., 30 minutes. On the set-up: species or system Male Sprague-Dawley rats. A digest of the protocol:
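Bound ^125I-CCK-33 was counted in pellets after a 30 min, 37° C incubation followed by centrifugation. Membranes came from male Sprague-Dawley rat pancreas, assayed in Tris HCl pH 7.7 containing DTT, bacitracin, PMSF and o-phenanthroline. For Scatchard analysis, tracer was diluted with rising unlabelled CCK-33.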

[4] abbreviates: ^125 I-gastrin, read-out: IC50 ^125 I-Gastrin Gastric Glands.
Where [5] appears, read: read-out: IC50 ^125 I-CCK Pancreas.
Where [6] appears, read: read-out: IC50 ^125 I-CCK Brain.
Where [7] appears, read: IC50 ^125 I-Gastrin Gastric Glands.

As to `CN1C(=O)C(NC(=O)Nc2ccc(Cl)cc2)N=C(c2ccccc2)c2ccccc21` (stereo not drawn) [Example 217], the figures for the IC50 in assay [1] (setting [4]), in assay [2] (IC50 ^125 I-CCK Brain) and in assay [3] (setting [5]) were 0.022 µM, 0.023 µM and 0.051 µM, respectively.
Regarding `CN1C(=O)[C@@H](NC(=O)c2ccc(C(F)(F)F)cc2)N=C(c2ccccc2F)c2ccccc21` [Example 219, (S)-N-(5-(2-Fluorophenyl)-2,3-dihydro-1-methyl-2-oxo-1H-1,4-benzodiazepin-3-yl)-4-(trifluoromethyl)-benzamide], the 50% inhibitory concentration (IC50) in assay [1] (setting [4]) came to 0.44 µM; in assay [2] (IC50 ^125 I-CCK Brain) it was 1.4 µM; in assay [3] (IC50 ^125 I-CCK Pancreas), 0.0005 µM.
Take `O=C(CN1C(=O)C(NC(=O)Nc2ccc(Cl)cc2)N=C(c2ccccc2)c2ccccc21)NCc1ccccc1` (stereo not drawn) [Example 220]: the 50% inhibitory concentration (IC50) in assay [1] (setting [4]) stood at 0.15 µM; in assay [2] (setting [6]), 0.1 µM; in assay [3] (setting [5]), 2.4 µM.
Turning to `CCN(CC)C(=O)CN1C(=O)C(NC(=O)Nc2ccc(Cl)cc2)N=C(c2ccccc2)c2ccccc21` (stereo not drawn) [Example 221, 3-((((4-Chlorophenyl)amino)carbonyl)amino)-N,N-diethyl-2,3-dihydro-2-oxo-5-phenyl-1H-1,4-benzodiazepine-1-acetamide], the IC50 in assay [1] (setting [4]) was 0.002 µM; in assay [2] (setting [6]) it was 0.0006 µM; in assay [3] (setting [5]), 0.4 µM.
For `CCN(CC)C(=O)CN1C(=O)C(NC(=O)OCc2ccccc2)N=C(c2ccccc2)c2ccccc21` (stereo not drawn) [Example 222], the IC50 in assay [1] (setting [4]) came to 0.23 µM; in assay [2] (setting [6]), 0.15 µM; in assay [3] (IC50 ^125 I-CCK Pancreas) it was 2.2 µM.
On to `CCCCCc1ccc(C(=O)NC2N=C(c3ccccc3F)c3ccccc3N(C)C2=O)cc1` (stereo not drawn) [Example 223, N-(5-(2-Fluorophenyl)-2,3-dihydro-1-methyl-2-oxo-1H-1,4-benzodiazepin-3-yl)-4-pentylbenzamide], for which the IC50 in assay [1] (setting [7]) was above 100 µM; in assay [2] (IC50 ^125 I-CCK Brain), above 100 µM; in assay [3] (IC50 ^125 I-CCK Pancreas), 0.14 µM.
On to `CCNC(=O)CN1C(=O)C(NC(=O)Nc2ccc(Cl)cc2)N=C(c2ccccc2)c2ccccc21` (stereo not drawn) [Example 224, 3-((((4-Chlorophenyl)amino)carbonyl)amino)-N-ethyl-2,3-dihydro-2-oxo-5-phenyl-1H-1,4-benzodiazepine-1-acetamide], for which the figures for the IC50 in assay [1] (setting [4]), in assay [2] (setting [6]) and in assay [3] (setting [5]) were 0.025 µM, 0.011 µM and 2.1 µM, respectively.
Regarding `CN1C(=O)C(NC(=O)c2ccc(C(C)(C)C)cc2)N=C(c2ccccc2F)c2ccccc21` (stereo not drawn) [Example 226, 4-(1,1-Dimethylethyl)-N-(5-(2-fluorophenyl)-2,3-dihydro-1-methyl-2-oxo-1H-1,4-benzodiazepin-3-yl)-benzamide], the IC50 in assay [1] (setting [4]) was 6.4 µM; in assay [2] (setting [6]), 2.3 µM; in assay [3] (IC50 ^125 I-CCK Pancreas) it was below 0.1 µM.
As for `CC(C)CC(N)C(=O)N1CC(CC2N=C(c3ccccc3)c3ccccc3NC2=O)c2ccccc21` (stereo not drawn) [Example 227, 1-(2-Amino-4-methyl-1-oxopentyl)-3-((2,3-dihydro-2-oxo-5-phenyl-1H-1,4-benzodiazepin-3-yl)methyl)-2,3-dihydro-1H-indole hydrochloride], the half-inhibitory concentration (IC50) in assay [1] (setting [7]) was above 100 µM; in assay [2] (IC50 ^125 I-CCK Brain) it was 50 µM; in assay [3] (IC50 ^125 I-CCK Pancreas), 6.6 µM.
For the compound `CCCCCc1ccc(C(=O)N[C@H]2N=C(c3ccccc3F)c3ccccc3N(C)C2=O)cc1` [Example 228, (S)-N-(5-(2-Fluorophenyl)-2,3-dihydro-1-methyl-2-oxo-1H-1,4-benzodiazepin-3-yl)-4-pentylbenzamide], the IC50 in assay [1] (setting [7]) was 60 µM; in assay [2] (IC50 ^125 I-CCK Brain), 100 µM; in assay [3] (IC50 ^125 I-CCK Pancreas), 0.049 µM.
Consider `CCOC(=O)CCN1C(=O)C(NC(=O)OCc2ccccc2)N=C(c2ccccc2)c2ccccc21` (stereo not drawn) [Example 229, 2,3-Dihydro-2-oxo-5-phenyl-3-(((phenylmethoxy)carbonyl)amino)-1H-1,4-benzodiazepine-1-propanoic acid ethyl ester], for which the IC50 is 0.26 µM in assay [1] (setting [4]), 0.44 µM in assay [2] (setting [6]) and 1.2 µM in assay [3] (IC50 ^125 I-CCK Pancreas).
For the compound `CCOC(=O)CCN1C(=O)C(NC(=O)Nc2ccc(Cl)cc2)N=C(c2ccccc2)c2ccccc21` (stereo not drawn) [Example 230, 3-((((4-Chlorophenyl)amino)carbonyl)amino)-2,3-dihydro-2-oxo-5-phenyl-1H-1,4-benzodiazepine-1-propanoic acid ethyl ester], the half-maximal inhibitory concentration (IC50) was 0.035 µM in assay [1] (setting [7]), 0.0051 µM in assay [2] (IC50 ^125 I-CCK Brain) and 0.49 µM in assay [3] (setting [5]).
As to `CN1C(=O)C(NC(=O)[C@@H](Cc2ccccc2)NC(=O)OC(C)(C)C)N=C(c2ccccc2F)c2ccccc21` (stereo partly drawn) [Example 231, (2-((5-(2-Fluorophenyl)-2,3-dihydro-1-methyl-2-oxo-1H-1,4-benzodiazepin-3-yl)amino)-2-oxo-1-(phenylmethyl)ethyl)-carbamic acid 1,1-dimethylethyl ester], the IC50 was 2.9 µM in assay [1] (setting [4]), 2.7 µM in assay [2] (setting [6]) and 0.58 µM in assay [3] (IC50 ^125 I-CCK Pancreas).
For `CN1C(=O)[C@@H](NC(=O)Nc2ccc(Cl)cc2)N=C(c2ccccc2)c2ccccc21` [Example 233], the IC50 amounted to 0.58 µM in assay [1] (setting [4]), 0.41 µM in assay [2] (IC50 ^125 I-CCK Brain) and 0.026 µM in assay [3] (setting [5]).
Consider `CN1C(=O)[C@H](NC(=O)Nc2ccc(Cl)cc2)N=C(c2ccccc2)c2ccccc21` [Example 234, (R)-N-(4-Chlorophenyl)-N'-(2,3-dihydro-1-methyl-2-oxo-5-phenyl-1H-1,4-benzodiazepin-3-yl)-Urea], for which the IC50 came to 0.012 µM in assay [1] (setting [4]), 0.0055 µM in assay [2] (IC50 ^125 I-CCK Brain) and 1.1 µM in assay [3] (setting [5]).
Turning to `CN1CCN(C(=O)CN2C(=O)C(NC(=O)OCc3ccccc3)N=C(c3ccccc3)c3ccccc32)CC1` (stereo not drawn) [Example 235, (2,3-Dihydro-1-(2-(4-methyl-1-piperazinyl)-2-oxoethyl)-2-oxo-5-phenyl-1H-1,4-benzodiazepin-3-yl)-carbamic acid phenylmethyl ester], the results for the IC50 in assay [1] (setting [4]), in assay [2] (setting [6]) and in assay [3] (IC50 ^125 I-CCK Pancreas) were 1.4 µM, 1.7 µM and 29 µM, respectively.
As for `O=C(Nc1ccc(Cl)cc1)NC1N=C(c2ccccc2)c2ccccc2N(CC(=O)N2CCCC2)C1=O` (stereo not drawn) [Example 236, 1-((3-((((4-Chlorophenyl)amino)carbonyl)amino)-2,3-dihydro-2-oxo-5-phenyl-1H-1,4-benzodiazepin-1-yl)acetyl)pyrrolidine], the IC50 in assay [1] (setting [4]) was 0.0005 µM; in assay [2] (setting [6]), 0.00028 µM; in assay [3] (setting [5]), 0.52 µM.
Turning to `CN1CCN(C(=O)CN2C(=O)C(NC(=O)Nc3ccc(Cl)cc3)N=C(c3ccccc3)c3ccccc32)CC1` (stereo not drawn) [Example 237, 1-((3-((((4-Chlorophenyl)amino)carbonyl)amino)-2,3-dihydro-2-oxo-5-phenyl-1H-1,4-benzodiazepin-1-yl)acetyl)-4-methylpiperazine], the IC50 came out at 0.0026 µM in assay [1] (setting [4]), 0.008 µM in assay [2] (setting [6]) and 1.2 µM in assay [3] (setting [5]).
Consider `CN1C(=O)C(NC(=O)c2ccsc2)N=C(c2ccccc2F)c2ccccc21` (stereo not drawn) [Example 238, N-(5-(2-Fluorophenyl)-2,3-dihydro-1-methyl-2-oxo-1H-1,4-benzodiazepin-3-yl)-3-thiophenecarboxamide], for which the IC50 in assay [1] (setting [7]) was 11 µM; in assay [2] (IC50 ^125 I-CCK Brain), 26 µM; in assay [3] (setting [5]), 0.028 µM.
On to `CCOC(=O)CN1C(=O)C(NC(=O)Cc2ccc(Cl)cc2)N=C(c2ccccc2)c2ccccc21` (stereo not drawn) [Example 239, 3-(((4-Chlorophenyl)acetyl)amino)-2,3-dihydro-2-oxo-5-phenyl-1H-1,4-benzodiazepine-1-acetic acid ethyl ester], for which the IC50 worked out at 0.0045 µM in assay [1] (setting [4]), 0.038 µM in assay [2] (setting [6]) and 1.7 µM in assay [3] (IC50 ^125 I-CCK Pancreas).
Taken in the same sequence, the figures for `O=C(Cc1ccc(Cl)cc1)NC1N=C(c2ccccc2)c2ccccc2NC1=O` (stereo not drawn) [Example 240, 4-Chloro-N-(2,3-dihydro-2-oxo-5-phenyl-1,4-benzodiazepin-3-yl)-benzeneacetamide] were 7 µM, 2.9 µM and 1.3 µM.
